Results: patent US8507498B2, “4, 6-disubstituted aminopyrimidine derivatives as inhibitors of protein kinases” (Ingenium Pharmaceuticals GmbH, priority 2007, dated 2013)

How the values were obtained:
HBV (HepG2-2.2.15 cells) = assay: HBV replication assay; assay type: cell-based; settings: 6 days
Protocol: To test the anti-HBV-activity of compounds of the present invention the HBV-producing cell line HepG2-2.2.15 (M. A. Sells, PNAS 1987, 84, 1005-1009) is used. About 1.0×10^4 cells are seeded in 96-well microtiter plates in DMEM medium supplemented with 10% FCS. After incubation at 37° C. in 5% CO2 atmosphere for 24 hours the medium is replaced with fresh medium containing the appropriately diluted compounds of the present invention. 3 days later medium is replaced by freshly prepared compound-containing medium and the cells are incubated for further 3 days. Subsequently 200 μl lysis buffer (50 mM Tris-Cl 7.5; 1 mM EDTA 8.0; 0.5% NP40) per well is added. To remove cell debris and nucleic acids, lysate is centrifuged (15000 rpm, 10 min, 4° C.).
Cellular and viral RNA is removed by addition of 2 μl of RNase. 100 μl of the samples are spotted onto an uncharged nylon membrane pre-wetted with PBS (phosphate-buffered saline) using a 96 well-blotting chamber (MINIfold Dot-Blot, Schleicher&Schüll). […]
The fixed membrane is pre-hybridized in a standard hybridisation buffer (50% formamide, 5×SSPE, 10×Denhards, 1% SDS, 100 μg/ml salmon sperm DNA) for at least 3 hours at 42° C. and hybridised overnight against the labelled HBV-fragment. […] The intensity of the HBV-DNA is quantified using a phosphoimager (Fuji). […] Absorbance is monitored at 570 nm and 600 nm wavelength.

CDK1/CycB = CDK1/CycB (Homo sapiens, UniProt P06493); assay: General kinase assay (Example 80); assay type: biochemical; settings: ATP 1 μM
Protocol: (§1) The inhibitory effect of compounds according to the present invention on the activity of protein kinases can be measured according to the following protocol: • Reaction Volume: 40 μl • Reaction Time: 60 min • Reaction Temperature: room temperature • Assay Plate: 96 well U bottom plate (Greiner, 650161) • MultiScreen-PH Plate: 96 well MAPH Filter Plates (Millipore, MAPHNOB50) • Filter Washing Solution: 0.75% H3PO4 • Scintillation Liquid Supermix Liquid Scintillator (PerkinElmer, 1200-439) Controls: • Negative Control (C−): 100 mM EDTA (Ethylenediaminetetraacetic acid), no Inhibitor • Positive Control (C+): no Inhibitor Reaction Buffer: • 20 mM Tris (Tris(hydroxymethyl)aminomethane hydrochloride), pH 7.5 • 10 mM MgCl2 • 1 mM DTT Final Assay Concentrations: • Kinase: Use kinase conc. yielding 10% ATP turn over. • ATP: 1 μM • Adenosine 5′-[-^33P]triphosphate:12.5 μCi/ml (Amersham Biosciences, BF1000) • Substrate: Myelin Basic Protein 10 μM (Invitrogen, 13228-010) Pipetting Sequence: • 1) Add 10 μl 4 fold concentrated Substrate+4 fold concentrated ATP in […] concentrated Reaction Buffer to each well of Assay Plate • 2) Add 10 μl 4 fold concentrated inhibitor in 4% DMSO in H2O to each well except to C− and C+wells • 3) Add 10 μl 4% DMSO in H2O to C− and C+wells • 4) Add 10 μl 500 mM EDTA in H2O to C− wells • 5) Add 10 μl 50 μCi/ml Adenosine 5′-[-^33P]triphosphate in H2O to each well • 6) Add 10 μl 4 fold concentrated kinase in Reaction Buffer to each well • 7) Incubate 1 hr at room temperature • 8) Add 10 μl 50 mM EDTA in H2O to each well except to C− wells • 9) Prepare MAPH plates by adding 200 μl 0.75% H3PO4 to each well • 10) Exhaust 0.75% H3PO4 using Millipore vacuum station • 11) Add 60 μl 0.75% H3PO4 to each well of MAPH Filter Plate • 12) Transfer 30 μl sample per well from Assay Plate to corresponding well of MAPH Filter Plate • 13) Incubate 30 min at room temperature • 14) Wash each well of MAPH Filter Plates 3× with 200 μl 0.75% H3PO4 using Millipore vacuum station. • 15) Add 20 μl Scintillation Liquid to each well of MAPH Filter Plate • 16) Seal MAPH Filter Plate • 17) Store MAPH Filter Plate 30 min in darkness • 18) Quantify radioactivity Results:
(§2) IC50s were calculated for each kinase based on serial dilutions.

CDK4/CycD1 = CDK4/CycD1 (Homo sapiens, UniProt P11802); assay: General kinase assay (Example 80); assay type: biochemical; settings: ATP 1 μM
Protocol: as §1, §2

CDK6/CycD3 = CDK6/CycD3 (Homo sapiens, UniProt Q00534); assay: General kinase assay (Example 80); assay type: biochemical; settings: ATP 1 μM
Protocol: as §1, §2

CDK2/CycA = biological target: T1, CDK2/CycA (Homo sapiens, UniProt P24941); assay: General kinase assay (Example 80); assay type: biochemical; settings: ATP 1 μM
T1 construct: purchased ProQinase (Freiburg, Germany)
Protocol: (§3) Kinase assays determining CDK2/CyclinA and CDK5/p35 activity were performed as described by the manufacturer's recommendations (ProQinase (Freiburg, Germany) for CDK2/CyclinA and Upstate for CDK5/p35).
as §1, §2

CDK5/p35 = biological target: T2, CDK5/p35 (Homo sapiens, UniProt Q00535); assay: General kinase assay (Example 80); assay type: biochemical; settings: ATP 1 μM
T2 construct: purchased Upstate
Protocol: as §3, §1, §2

A2780 = assay: Growth assay using Alamar Blue; assay type: cell-based; settings: Homo sapiens, read-out: IC50 against cell line A2780
Protocol: (§4) Cells were seeded in 384-well plates (white, Greiner: 781080) at a density of […] cells per well in medium (RPMI+10% FCS).
(§5) Cells were incubated in 25 μl medium/well and were grown over night at 37° C., 6% CO2. On the following day compounds were added in DMSO in serial fold dilutions in fresh medium. Negative control wells were incubated without cells. Positive control wells were incubated with cells but without inhibitors (DMSO only). These wells served as data points to determine relative growth (given in % of the DMSO control [=100%]). The cell number was determined by addition of 5 μL Alamar Blue™ (Biosource DAL1100) to each well. Fluorescence was measures with an Analyst GT machine (Molecular Devices) at an excitation wavelength of 560 nm and an emission wavelength of 590 nm.
(§6) The following cell lines were used: A2780 (ECACC order number 93112519; human ovarian carcinoma; Semin Oncol (1984) 11:285; Cancer Res (1987) 47:414), B16F1 (ATCC order number CRL-6323; melanoma; Nat. New Biol. 242: 148-149, 1973); HCT116 (ATCC order number CCL-247; Colorectal carcinoma; Cancer Res (1981) 41:1751; Cancer (1995) 76:201), HT29 (ATTC order number HTB-38; colorectal adenocarcinoma; J. Biol. Chem. 271: 9490-9496, 1996) HepG2 (ATCC order number HB-8065; hepatocellular carcinoma; J. Biol. Chem. 271: 10073-10078, 1996), J774 (ATCC order number TIB-67; reticulum cell sarcoma; J. Biol. Chem. 271: 18431-18436, 1996); MCF7 (ATCC order number HTB-22; Breast carcinoma; J Natl Cancer Inst (1973) 51:1409; Cancer Res (1993) 53:5193), PM1 (obtainable from the National Institute of Allergy and Infectious Diseases; Division of AIDS via the NIH AIDS Research & Reference Reagent Program; Lusso P et al (1995), J Virol 69: 3712-3720) and U373-MAGI-CCR5 (obtainable from the National Institute of Allergy and Infectious Diseases; Division of AIDS via the NIH AIDS Research & Reference Reagent Program; Kensinger R D et al (2004), Antimicrob Agents Chemother 48: 1614-1623).
(§7) IC50s were calculated for each cell line based on serial dilutions.

B16F1 = assay: Growth assay using Alamar Blue; assay type: cell-based; settings: Mus musculus, B16-F1, read-out: IC50 against cell line B16F1
Protocol: as §4, §5, §6, §7

HCT116 = assay: Growth assay using Alamar Blue; assay type: cell-based; settings: Homo sapiens, HCT-116, read-out: IC50 against cell line HCT116
Protocol: as §4, §5, §6, §7

HT29 = assay: Growth assay using Alamar Blue; assay type: cell-based; settings: Homo sapiens, HT-29, read-out: IC50 against cell line HT29
Protocol: as §4, §5, §6, §7

HepG2 = assay: Growth assay using Alamar Blue; assay type: cell-based; settings: Homo sapiens, read-out: IC50 against cell line HepG2
Protocol: as §4, §5, §6, §7

J774 = assay: Growth assay using Alamar Blue; assay type: cell-based; settings: Mus musculus, read-out: IC50 against cell line J774
Protocol: as §4, §5, §6, §7

MCF7 = assay: Growth assay using Alamar Blue; assay type: cell-based; settings: Homo sapiens, read-out: IC50 against cell line MCF7
Protocol: as §4, §5, §6, §7

PM1 = assay: Growth assay using Alamar Blue; assay type: cell-based; settings: read-out: IC50 against cell line PM1
Protocol: as §4, §5, §6, §7

U373-MAGI-CCR5E = assay: Growth assay using Alamar Blue; assay type: cell-based; settings: read-out: IC50 against cell line U373-MAGI-CCR5E
Protocol: as §4, §5, §6, §7

Sequence of CDK6/CycD3 (Q00534 whole entry, species assumed): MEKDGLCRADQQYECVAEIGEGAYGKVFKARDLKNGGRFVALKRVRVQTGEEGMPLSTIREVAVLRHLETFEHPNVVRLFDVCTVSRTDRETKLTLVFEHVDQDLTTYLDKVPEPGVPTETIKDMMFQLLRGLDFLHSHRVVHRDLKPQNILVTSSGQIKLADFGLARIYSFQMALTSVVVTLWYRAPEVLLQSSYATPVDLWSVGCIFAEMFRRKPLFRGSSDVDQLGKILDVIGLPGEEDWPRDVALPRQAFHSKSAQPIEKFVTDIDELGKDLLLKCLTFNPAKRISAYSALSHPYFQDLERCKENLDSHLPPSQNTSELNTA
Sequence of CDK6/CycD3 (P30281 whole entry partner, species assumed): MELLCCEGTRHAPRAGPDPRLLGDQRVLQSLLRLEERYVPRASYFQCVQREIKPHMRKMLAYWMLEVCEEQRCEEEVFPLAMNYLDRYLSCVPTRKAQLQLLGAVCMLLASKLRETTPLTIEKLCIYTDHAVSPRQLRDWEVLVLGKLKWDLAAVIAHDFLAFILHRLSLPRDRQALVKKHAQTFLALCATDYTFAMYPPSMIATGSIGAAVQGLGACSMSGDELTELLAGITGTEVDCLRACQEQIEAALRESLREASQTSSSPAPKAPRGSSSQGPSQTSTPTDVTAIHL
Sequence of CDK4/CycD1 (P11802 whole entry, species assumed): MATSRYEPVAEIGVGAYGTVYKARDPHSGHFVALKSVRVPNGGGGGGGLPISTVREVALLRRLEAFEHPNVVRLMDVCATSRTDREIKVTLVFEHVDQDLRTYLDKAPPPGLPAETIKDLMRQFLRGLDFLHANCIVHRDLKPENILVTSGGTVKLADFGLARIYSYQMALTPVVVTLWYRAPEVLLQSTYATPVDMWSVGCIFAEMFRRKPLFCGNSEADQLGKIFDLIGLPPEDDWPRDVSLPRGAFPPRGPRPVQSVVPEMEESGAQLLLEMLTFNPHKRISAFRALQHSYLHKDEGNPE
Sequence of CDK4/CycD1 (P24385 whole entry partner, species assumed): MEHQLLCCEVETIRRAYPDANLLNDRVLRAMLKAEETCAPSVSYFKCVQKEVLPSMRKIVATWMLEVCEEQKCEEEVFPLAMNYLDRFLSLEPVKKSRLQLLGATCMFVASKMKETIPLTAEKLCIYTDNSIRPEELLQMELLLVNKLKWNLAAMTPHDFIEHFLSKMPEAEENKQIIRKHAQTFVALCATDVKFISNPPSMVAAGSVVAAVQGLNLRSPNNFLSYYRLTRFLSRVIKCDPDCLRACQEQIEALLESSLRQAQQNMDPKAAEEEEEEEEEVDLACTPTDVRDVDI
T2 sequence (Q00535 whole entry): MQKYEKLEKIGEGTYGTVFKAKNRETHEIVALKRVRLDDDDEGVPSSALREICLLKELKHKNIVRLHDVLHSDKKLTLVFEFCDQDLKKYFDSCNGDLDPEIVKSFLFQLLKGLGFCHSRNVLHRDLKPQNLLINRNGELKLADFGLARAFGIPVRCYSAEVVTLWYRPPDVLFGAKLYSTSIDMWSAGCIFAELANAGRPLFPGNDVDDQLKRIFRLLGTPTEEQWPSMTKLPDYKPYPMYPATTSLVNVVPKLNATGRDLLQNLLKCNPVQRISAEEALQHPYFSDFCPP
T2 sequence (Q15078 whole entry partner): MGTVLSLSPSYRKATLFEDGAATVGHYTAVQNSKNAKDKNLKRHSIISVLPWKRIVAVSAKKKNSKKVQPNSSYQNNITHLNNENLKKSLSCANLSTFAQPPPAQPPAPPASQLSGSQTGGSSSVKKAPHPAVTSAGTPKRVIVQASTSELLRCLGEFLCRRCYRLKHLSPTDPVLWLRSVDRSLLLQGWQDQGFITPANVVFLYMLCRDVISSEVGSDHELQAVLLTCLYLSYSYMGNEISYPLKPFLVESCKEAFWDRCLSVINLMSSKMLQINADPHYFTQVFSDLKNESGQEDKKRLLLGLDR
Sequence of CDK1/CycB (P06493 whole entry, species assumed): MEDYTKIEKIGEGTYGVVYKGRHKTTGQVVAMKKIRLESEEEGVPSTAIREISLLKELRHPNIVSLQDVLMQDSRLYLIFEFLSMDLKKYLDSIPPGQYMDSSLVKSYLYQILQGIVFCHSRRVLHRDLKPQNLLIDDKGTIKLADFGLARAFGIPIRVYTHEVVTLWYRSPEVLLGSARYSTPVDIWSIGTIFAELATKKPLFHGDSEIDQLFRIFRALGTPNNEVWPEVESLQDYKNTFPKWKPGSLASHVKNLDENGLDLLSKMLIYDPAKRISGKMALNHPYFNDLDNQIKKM
Sequence of CDK1/CycB (P14635 whole entry partner, species assumed): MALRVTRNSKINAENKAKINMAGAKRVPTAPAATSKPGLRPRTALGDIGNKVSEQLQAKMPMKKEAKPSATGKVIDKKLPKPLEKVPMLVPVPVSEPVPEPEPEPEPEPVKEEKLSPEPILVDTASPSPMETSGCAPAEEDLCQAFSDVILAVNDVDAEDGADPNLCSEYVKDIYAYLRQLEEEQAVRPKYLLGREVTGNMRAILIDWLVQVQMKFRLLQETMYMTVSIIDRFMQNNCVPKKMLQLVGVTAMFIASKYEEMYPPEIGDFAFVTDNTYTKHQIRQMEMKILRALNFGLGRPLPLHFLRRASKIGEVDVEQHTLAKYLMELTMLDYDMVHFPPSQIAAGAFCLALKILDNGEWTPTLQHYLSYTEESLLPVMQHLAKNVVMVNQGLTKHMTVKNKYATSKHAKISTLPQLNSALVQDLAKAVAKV

SMILES | HBV replication (HBV-DNA) (HBV (HepG2-2.2.15 cells)) | IC50 (CDK1/CycB) | IC50 (CDK4/CycD1) | IC50 (CDK6/CycD3) | IC50 (CDK2/CycA) | IC50 (CDK5/p35) | IC50 (A2780) | IC50 (B16F1) | IC50 (HCT116) | IC50 (HT29) | IC50 (HepG2) | IC50 (J774) | IC50 (MCF7) | IC50 (PM1) | IC50 (U373-MAGI-CCR5E)
CN1CC[C@H](c2c(O)cc(O)c3c(=O)cc(-c4ccccc4Cl)oc23)[C@H](O)C1 [flavopiridol] | inhibits replication | – | – | – | – | – | – | – | – | – | – | – | – | – | –
COc1ccccc1-c1cc(Nc2cccc(CS(N)(=O)=O)c2)ncn1 [Compound 85, C-{3-[6-(2-methoxy-phenyl)-pyrimidin-4-ylamino]-phenyl}-methanesulfonamide] | – | < 10 µM | < 10 µM | < 10 µM | < 10 µM | < 5 µM | < 10 µM | < 10 µM | < 2 µM | < 5 µM | < 10 µM | < 10 µM | < 10 µM | < 5 µM | < 10 µM
